Reference: patent US11950907B2, “Method for non-invasive monitoring of fluorescent tracer agent with diffuse reflecting medium with time-varying optical properties” (MediBeacon Inc., priority 2017, dated 2024)

How the values were obtained:
[1] = Absorption and emission spectra of the exogenous fluorescent agent (FIG. 3); assay type: physicochemical
Text: By way of illustrative example, FIG. 3 is a graph summarizing the absorption spectra for HbO2 and Hb, as well as the absorption and emission spectra of frequency spectra of MB-102, an exogenous fluorescent agent in one aspect. Emission spectra for a blue LED light source and a green LED light source are also shown superimposed over the other spectra of FIG. 3. In this aspect, the system 200 may include a blue LED as the first light source 218, and the excitatory wavelength for the system 200 may be the isosbestic wavelength of about 450 nm. […] However, at wavelengths above about 500 nm, the HbO2/Hb spectra are less steeply sloped, and a broader band light source including, but not limited to, an LED with a bandpass filter may suffice for use as a first light source 218.
In another aspect, the excitatory wave length may be selected to enhance the contrast in light absorbance between the exogenous fluorescent agent and the chromophores within the tissues of the patient 202. […] Without being limited to any particular theory, a higher proportion of light illuminating the tissue of the patient 202 at a wavelength of about 450 nm will be absorbed by the MB-102 relative to the HbO2 and Hb, thus enhancing the efficiency of absorption by the MB-102 and reducing the intensity of light at the excitatory wavelength needed to elicit a detectable fluorescence signal. […]

[2] = Transdermal fluorescence monitoring of renal elimination of the agent during perturbations (Example 1); assay type: in vivo; conditions: pig, time points later than 2 hours after agent injection, no baseline subtraction, FIG. 21B
Text: A system similar to the system 200 described herein above was used to monitor the fluorescence produced during the renal elimination of an exogenous fluorescent agent, MB-102, using the methods described herein above, in particular the diffuse reflectance data correction method.
FIG. 21A is a graph summarizing the changes in the magnitude of the raw fluorescence signal (Flr) just prior to injection of the MB-102 fluorescent agent into a pig and for about six hours post-injection. During the post-equilibration portion, corresponding to a time of about 13:45 in FIG. 21A, the pig was subjected to a series of perturbations selected to vary the optical properties of the pig's skin and/or underlying tissues: administration of blood pressure medications to induce vasodilation/vasorestriction 2102, application of pressure to compress the tissue 2104, lateral movement of the sensor head 2106, SpO2 decrease 2108, SpO2 decrease 2110, remove/replace sensor head 2112/2114, and skin cooling 2116.
FIG. 21B is a graph summarizing the corrected intrinsic fluorescence signal (IF) corrected as described herein above with no baseline subtraction.

[3] = Transdermal fluorescence measurements from a patient before and after injection of the agent (FIG. 15); assay type: in vivo; conditions: about 10 hours after injection, after peak concentration
Method: FIG. 15 is a graph of fluorescence measurements obtained from a patient over a period of about 10 hours after injection of an exogenous fluorescence agent (MB-102) after a pre-injection period of about 3 hours. Referring to FIG. 15, the pre-injection/baseline period 1502 is characterized by a relatively low and stable fluorescence level, likely due the absence of […] fluorescent agent in the blood of the patient. […] Without being limited to any particular theory, it is thought the injected exogenous fluorescence agent is likely equilibrated across the extra-cellular space once the decay of the fluorescence is well-described by a […] (or a line on semi-log plot).

light absorption relative to HbO2 and Hb ([1]; at the isosbestic wavelength of 452 nm): more than three-fold higher
emission peak wavelength ([1]; emission spectrum): about 550 nm
time course of fluorescence after injection [3]: relatively smooth exponential decrease
SMILES: Nc1nc(C(=O)N[C@H](CO)C(=O)O)c(N)nc1C(=O)N[C@H](CO)C(=O)O [MB-102]
time course of corrected intrinsic fluorescence (IF) signal [2]: expected single-exponential decay of the signal
